Source: patent US5278161A, “Amino acid derivatives useful as renin inhibitors” (Hoffmann-La Roche Inc., priority 1990, dated 1994)

target: T1, human renin (Homo sapiens, UniProt P00797); test: In vitro test with pure human renin (inhibition of angiotensin I production from human tetradecapeptide renin substrate, RIA); assay type: biochemical; conditions: pH 7.4 buffer, hTD substrate, three hours at 37° C., angiotensin I by RIA
T1 sequence (P00797 67-406): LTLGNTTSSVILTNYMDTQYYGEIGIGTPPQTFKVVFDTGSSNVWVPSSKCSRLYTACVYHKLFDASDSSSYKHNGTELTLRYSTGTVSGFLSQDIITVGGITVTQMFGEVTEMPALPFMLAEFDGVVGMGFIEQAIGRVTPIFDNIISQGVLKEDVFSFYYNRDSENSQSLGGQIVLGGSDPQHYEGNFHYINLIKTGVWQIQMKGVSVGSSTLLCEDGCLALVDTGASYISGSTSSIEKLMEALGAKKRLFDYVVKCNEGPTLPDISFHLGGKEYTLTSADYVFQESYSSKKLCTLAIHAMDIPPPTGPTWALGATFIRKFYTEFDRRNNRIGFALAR
Method: IN VITRO TEST WITH PURE HUMAN RENIN
The test is carried out in Eppendorf test tubes. The incubation mixture consists of (1) 100 μl of human renin in buffer A (0.1M sodium phosphate solution, pH 7.4, containing 0.1% bovine serum albumin, 0.1% sodium azide and 1 mM ethylenediaminetetraacetic acid), sufficient for a renin activity of 2-3 ng of angiotensin I/ml/hr.; (2) 145 μl of buffer A; (3) 30 μl of 10 μM human tetradecapeptide renin substrate (hTD) in 10 mM hydrochloric acid; (4) 15 μl of dimethyl sulphoxide with or without inhibitor and (5) 10 μl of a 0.03 molar solution of hydroxyquinoline sulphate in water.
The samples are incubated for three hours at 37° C. or 4° C. in triplicate. 2×100 μl samples per experimental test tube are used in order to measure the production of angiotensin I via RIA (standard radioimmunoassay; clinical assay solid phase kit). Cross reactivities of the antibody used in the RIA are: angiotensin I 100%; angiotensin II 0.0013%; hTD (angiotensin I-Val-Ile-His-Ser-OH) 0.09%. The production of angiotensin I is determined by the difference between the experiment at 37° C. and that at 4° C.
The following controls are carried out:
(a) Incubation of hTD samples without renin and without inhibitor at 37° C. and 4° C. The difference between these two values gives the base value of the angiotensin I production.
(b) Incubation of hTD samples with renin, but without inhibitor at 37° C. and 4° C. The difference between these values gives the maximal value of angiotensin I production.
In each sample the base value of the angiotensin I production is subtracted from the angiotensin I production which is determined. The difference between the maximal value and the base value gives the value of the maximal substrate hydrolysis (=100%) by renin.
The results are given as IC50 values which denote that concentration of the inhibitor at which the enzymatic activity is inhibited by 50%. The IC50 values are determined from a linear regression curve from a logit-log plot.

Question: With `CCCc1nc(-c2cccnc2)cn2c(C(C(=O)N[C@@H](CC3CCCCC3)[C@@H](O)[C@@H](O)C3CC3)c3cccnc3)nnc12` (single isomer, unassigned) [A, (R or S)-N-[(1S,2R,3S)-1-(Cyclohexylmethyl)-3-cyclopropyl-2,3-dihydroxypropyl]-8-propyl-α,6-bis(3-pyridyl)-s-triazolo[4,3-a]pyrazine-3-acetamide] as the molecule, how does the IC50 read?
Answer: 61 nM

Question: How did the IC50 turn out when `CCC(C)c1nc(-c2cccnc2)cn2c(C(=O)N[C@@H](CC3CCCCC3)[C@@H](O)[C@@H](O)C3CC3)nnc12` (mixture of isomers) [F, N-[(1S,2R,3S)-1-(cyclohexylmethyl)-3-cyclopropyl-2,3-dihydroxypropyl]-8-[(RS)-1-methylpropyl]-6-(3-pyridyl)-s-triazolo[4,3-a]pyrazine-3-carboxamide] was run?
Answer: 11 nM

Question: For `CCCc1nc(-c2cccnc2)cn2c(C(Cc3cccnc3)C(=O)N[C@@H](CC3CCCCC3)[C@@H](O)[C@@H](O)CC(C)C)nnc12` (single isomer, unassigned) [D, (R or S)-N-[(1S,2R,3S)-1-(cyclohexylmethyl)-2,3-dihydroxy-5-methylhexyl]-8-propyl-6-(3-pyridyl)-α-(3-pyridylmethyl)-s-triazolo[4,3-a]pyrazine-3-acetamide], which IC50 is on record?
Answer: 57 nM

Question: `CC(C)Cc1nc(-c2cccnc2)cn2c(C(Cc3cnc[nH]3)C(=O)N[C@@H](CC3CCCCC3)[C@@H](O)[C@@H](O)C3CC3)nnc12` (single isomer, unassigned) [C] was tested. Which IC50 did it give?
Answer: 42 nM

Question: `CCC(C)c1nc(-c2cccnc2)cn2c(C(Cc3cccnc3)C(=O)N[C@@H](CC3CCCCC3)[C@@H](O)[C@@H](O)C3CC3)nnc12` (single isomer, unassigned) [E, (S or R)-N-[(1S,2R,3S)-1-(cyclohexylmethyl)-3-cyclopropyl-2,3-dihydroxypropyl]-8-[(RS)-1-methylpropyl]-α-(3-pyridylmethyl)-6-(3-pyridyl)-s-triazolo[4,3-a]pyrazine-3-acetamide] was tested. Which IC50 did it give?
Answer: 48 nM

Question: `CC(C)c1nc(-c2cccnc2)cn2c(C(Cc3c[nH]cn3)C(=O)N[C@@H](CC3CCCCC3)[C@@H](O)[C@@H](O)C3CC3)nnc12` (single isomer, unassigned) [B, (R or S)-N-[(1S,2R,3S)-1-(cyclohexylmethyl)-3-cyclopropyl-2,3-dihydroxypropyl]-8-isopropyl-α-(imidazol-4-ylmethyl)-6-(3-pyridyl)-s-triazolo[4,3-a]pyrazine-3-acetamide] was tested. Which IC50 did it give?
Answer: 43 nM
